Measured values: ChEMBL document CHEMBL1144793, “Synthesis and characterization of 1,3-dihydro-benzo[b][1,4]diazepin-2-one derivatives: Part 3. New potent non-competitive metabotropic glutamate receptor 2/3 antagonists” (Bioorg Med Chem Lett, 2008)
Calls of active or inactive are those of the source. The calls are words filed in the database; no cut-off is given here.

What was measured:
[1] = target: T1, Metabotropic glutamate receptor 2 (Rattus norvegicus, UniProt P31421); assay: Displacement of [3H]LY354740 from rat mGluR2
T1 sequence (P31421 whole entry): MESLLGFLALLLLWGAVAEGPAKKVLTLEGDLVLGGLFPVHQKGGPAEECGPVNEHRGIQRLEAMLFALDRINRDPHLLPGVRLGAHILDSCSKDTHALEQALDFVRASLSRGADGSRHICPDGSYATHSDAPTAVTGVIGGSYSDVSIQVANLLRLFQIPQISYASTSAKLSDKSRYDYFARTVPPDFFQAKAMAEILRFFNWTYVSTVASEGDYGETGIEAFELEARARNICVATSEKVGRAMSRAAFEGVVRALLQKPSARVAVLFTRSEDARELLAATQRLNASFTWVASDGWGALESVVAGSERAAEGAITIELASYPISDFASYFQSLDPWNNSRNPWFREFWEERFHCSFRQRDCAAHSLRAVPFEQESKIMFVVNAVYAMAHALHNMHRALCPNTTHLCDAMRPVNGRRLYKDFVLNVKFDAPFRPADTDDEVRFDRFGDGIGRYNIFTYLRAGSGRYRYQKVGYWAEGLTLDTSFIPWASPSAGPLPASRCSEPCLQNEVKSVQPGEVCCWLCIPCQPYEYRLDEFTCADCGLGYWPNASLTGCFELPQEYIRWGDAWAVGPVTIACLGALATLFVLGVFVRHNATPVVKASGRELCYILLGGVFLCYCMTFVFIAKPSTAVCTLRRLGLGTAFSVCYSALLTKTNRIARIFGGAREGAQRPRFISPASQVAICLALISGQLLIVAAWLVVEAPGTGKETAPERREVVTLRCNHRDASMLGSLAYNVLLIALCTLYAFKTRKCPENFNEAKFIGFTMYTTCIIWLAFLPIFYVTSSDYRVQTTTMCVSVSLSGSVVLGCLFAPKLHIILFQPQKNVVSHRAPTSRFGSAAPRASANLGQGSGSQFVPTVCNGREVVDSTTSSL

[2] = target: T1, Metabotropic glutamate receptor 2; assay: Antagonist activity at rat mGluR2 assessed as blockade of (1S,3R)-ACPD-induced inhibition of forskolin-stimulated cAMP production; type: functional
[3] = target: T1, Metabotropic glutamate receptor 2; assay: Antagonist activity at rat mGluR2 expressed in CHO cells assessed as inhibition of glutamta-induced GIRK current; type: functional, cell-based
[4] = target: Metabotropic glutamate receptor 3 (Rattus norvegicus, UniProt P31422); assay: Antagonist activity at rat mGluR3 expressed in CHO cells assessed as inhibition of glutamate-induced GIRK current; type: functional, cell-based
Chain of Metabotropic glutamate receptor 3 (P31422 whole entry): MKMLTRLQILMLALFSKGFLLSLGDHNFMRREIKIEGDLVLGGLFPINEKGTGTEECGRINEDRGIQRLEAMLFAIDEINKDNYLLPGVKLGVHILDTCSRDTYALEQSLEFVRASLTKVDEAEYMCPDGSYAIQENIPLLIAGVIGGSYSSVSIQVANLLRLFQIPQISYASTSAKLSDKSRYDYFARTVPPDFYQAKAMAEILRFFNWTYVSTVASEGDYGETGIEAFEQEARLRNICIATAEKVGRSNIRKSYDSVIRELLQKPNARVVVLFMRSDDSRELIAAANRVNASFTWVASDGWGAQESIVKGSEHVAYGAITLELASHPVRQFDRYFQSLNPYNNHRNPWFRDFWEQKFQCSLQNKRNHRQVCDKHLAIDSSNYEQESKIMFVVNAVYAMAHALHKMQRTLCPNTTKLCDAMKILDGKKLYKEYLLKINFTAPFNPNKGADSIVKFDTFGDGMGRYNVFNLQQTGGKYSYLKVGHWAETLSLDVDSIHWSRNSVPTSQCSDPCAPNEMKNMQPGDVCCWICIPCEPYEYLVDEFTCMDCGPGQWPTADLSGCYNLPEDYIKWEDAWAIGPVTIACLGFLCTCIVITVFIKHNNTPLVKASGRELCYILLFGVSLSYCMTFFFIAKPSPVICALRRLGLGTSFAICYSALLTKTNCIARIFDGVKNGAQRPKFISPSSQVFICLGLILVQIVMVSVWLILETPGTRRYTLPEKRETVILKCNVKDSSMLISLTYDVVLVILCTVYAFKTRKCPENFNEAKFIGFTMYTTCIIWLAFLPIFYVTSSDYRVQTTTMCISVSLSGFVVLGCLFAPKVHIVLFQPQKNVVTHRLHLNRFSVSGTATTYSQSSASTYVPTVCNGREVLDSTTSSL

[5] = Plasma concentration in rat at 10 mg/kg, po after 1.5 hrs; type: ADME, organism-based; parameters: dose 10 mg/kg, route oral
[6] = Drug level in rat brain at 10 mg/kg, po after 1.5 hrs; type: ADME, organism-based; parameters: dose 10 mg/kg, route oral; settings: read-out: Drug uptake
[7] = Ratio of drug level in brain to plasma at 10 mg/kg, po after 1.5 hrs; type: ADME, organism-based; parameters: dose 10 mg/kg, route oral; settings: rat
Mus musculus = assay: Spontaneous locomotor activity in po dosed C57BL/6J mouse assessed as reversal of LY-354740-induced hypoactivity; type: functional
[8] = Binding affinity to ionotropic glutamate receptor
[9] = Binding affinity to GABAA receptor
[10] = Ratio of drug level in cerebrospinal fluid to plasma at 10 mg/kg, po after 1.5 hrs; type: ADME, organism-based, CSF/Plasma; parameters: dose 10 mg/kg, route oral; settings: rat
Cytochrome P450 3A4 = Cytochrome P450 3A4 (Homo sapiens, UniProt P08684); assay: Inhibition of CYP3A4; type: ADME
Chain of Cytochrome P450 3A4 (P08684 whole entry): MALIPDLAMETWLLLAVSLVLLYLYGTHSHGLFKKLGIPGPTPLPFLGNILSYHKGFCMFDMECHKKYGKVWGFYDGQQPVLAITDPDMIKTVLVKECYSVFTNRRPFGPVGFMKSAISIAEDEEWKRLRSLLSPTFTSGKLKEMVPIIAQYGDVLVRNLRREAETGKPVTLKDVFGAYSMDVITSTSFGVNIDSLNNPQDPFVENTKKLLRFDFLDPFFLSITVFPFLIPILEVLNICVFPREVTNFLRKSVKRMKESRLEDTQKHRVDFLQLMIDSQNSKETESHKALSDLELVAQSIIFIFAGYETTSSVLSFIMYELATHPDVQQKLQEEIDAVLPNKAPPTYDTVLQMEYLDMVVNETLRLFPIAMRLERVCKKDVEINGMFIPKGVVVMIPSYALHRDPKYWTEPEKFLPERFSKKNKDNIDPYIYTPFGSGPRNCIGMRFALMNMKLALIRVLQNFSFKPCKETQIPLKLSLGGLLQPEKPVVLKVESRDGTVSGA

[11] = Clearance in rat microsomes; type: ADME, Liver, Microsome

Row | Compound | IC50 [1] | IC50 [2] | other results
1 | O=C1CC(c2cccc(-n3ccnc3)c2)=Nc2ccc(-c3ccc(F)cc3)cc2N1 | 17 nM | 24 nM | IC50 [3]: 299 nM; IC50 [4]: 17 nM
2 | CN(C)c1cc2c(cc1C(F)(F)F)NC(=O)CC(c1cccc(-n3ccnc3)c1)=N2 | 9 nM | 52 nM | 
3 | O=C1CC(c2cccc(-n3ccnc3)c2)=Nc2ccc(-c3ccccc3F)cc2N1 | 12 nM | 27 nM | IC50 [3]: 11 nM; IC50 [4]: 33 nM; concentration at 1.5 h [5]: 2660 ng/mL; concentration at 1.5 h [6]: 1340 ng/mL; Kp at 1.5 h [7]: 0.5; ED50 (Mus musculus): 12.5 mg/kg
4 | O=C1CC(c2cccc(-n3ccnn3)c2)=Nc2ccc(-c3cc(F)ccc3F)cc2N1 | 17 nM | 18 nM | 
5 | O=C1CC(c2cccc(-n3ccnn3)c2)=Nc2ccc(Br)cc2N1 | 130 nM |  | 
6 | O=C1CC(c2cccc(-n3ccnn3)c2)=Nc2ccc(C(F)(F)F)cc2N1 | 92 nM |  | 
7 | CCc1cc2c(cc1C(F)(F)F)NC(=O)CC(c1cccc(-n3ccnc3)c1)=N2 | 4 nM | 10 nM | 
8 | O=C1CC(c2cccc(-n3ccnc3)c2)=Nc2ccc(-c3cccc(F)c3)cc2N1 | 25 nM |  | 
9 | O=C1CC(c2cccc(-n3ccnn3)c2)=Nc2ccc(OCC(F)(F)F)cc2N1 | 70 nM |  | 
10 | O=C1CC(c2cccc(-n3ccnc3)c2)=Nc2ccc(-c3ccccc3)cc2N1 | 39 nM | 47 nM | 
11 | O=C1CC(c2cccc(-n3ccnn3)c2)=Nc2ccc(-c3ccccc3F)cc2N1 | 16 nM | 37 nM | IC50 [3]: 22 nM; IC50 [4]: 42 nM; Activity [8]: inactive; Activity [9]: inactive; concentration at 1.5 h [5]: 1420 ng/mL; concentration at 1.5 h [6]: 1060 ng/mL; Kp at 1.5 h [7]: 0.9; Kp at 1.5 h [10]: 0.5; ED50 (Mus musculus): 3.3 mg/kg; IC50 (Cytochrome P450 3A4): 4300 nM
12 | COc1cc2c(cc1C(F)(F)F)NC(=O)CC(c1cccc(-n3ccnn3)c1)=N2 | 29 nM | 74 nM | 
13 | O=C1CC(c2cccc(-n3ccnc3)c2)=Nc2cc(O)c(-c3ccccc3F)cc2N1 | 22 nM |  | IC50 [3]: 35 nM; IC50 [4]: 122 nM; CLint scaled [11]: 100 mL/min/kg
14 | CN(C)c1cc2c(cc1C(F)(F)F)NC(=O)CC(c1cccc(-n3ccnn3)c1)=N2 | 38 nM | 184 nM | 
15 | CCOc1cc2c(cc1C(F)(F)F)NC(=O)CC(c1cccc(-n3ccnn3)c1)=N2 | 7 nM | 34 nM | 
16 | O=C1CC(c2cccc(-n3ccnc3)c2)=Nc2cc(Cl)c(C(F)(F)F)cc2N1 | 17 nM | 15 nM | 

Row | Compound | IC50 [1] | IC50 [2] | other results
17 | O=C1CC(c2cccc(-n3ccnc3)c2)=Nc2cc(O)c(C#Cc3ccc(F)cc3)cc2N1 |  |  | IC50 [3]: 24 nM
18 | Cc1cc2c(cc1C(F)(F)F)NC(=O)CC(c1cccc(-n3ccnc3)c1)=N2 | 12 nM | 19 nM | 
19 | O=C1CC(c2cccc(-n3ccnc3)c2)=Nc2ccc(C3CC3)cc2N1 | 210 nM |  | 
20 | CC(C)CN(C)c1cc2c(cc1C(F)(F)F)NC(=O)CC(c1cccc(-n3ccnn3)c1)=N2 | 11 nM | 14 nM | 
21 | CC(C)CNc1cc2c(cc1C(F)(F)F)NC(=O)CC(c1cccc(-n3ccnc3)c1)=N2 | 19 nM | 73 nM | 
22 | O=C1CC(c2cccc(-n3ccnn3)c2)=Nc2ccc(C(F)F)cc2N1 | 608 nM |  | 
23 | CC(C)CNc1cc2c(cc1C(F)(F)F)NC(=O)CC(c1cccc(-n3ccnn3)c1)=N2 | 42 nM | 268 nM | 
24 | O=C1CC(c2cccc(-n3ccnn3)c2)=Nc2cc(Cl)c(C(F)(F)F)cc2N1 | 27 nM | 116 nM | 
25 | CC(C)c1ccc2c(c1)NC(=O)CC(c1cccc(-n3ccnn3)c1)=N2 | 466 nM |  | 
26 | Cc1cc2c(cc1C(F)(F)F)NC(=O)CC(c1cccc(-n3ccnn3)c1)=N2 | 9 nM | 39 nM | 
27 | O=C1CC(c2cccc(-n3ccnn3)c2)=Nc2ccc(Cl)cc2N1 | 60 nM |  | 
28 | O=C1CC(c2cccc(-n3ccnc3)c2)=Nc2ccc(-c3cc(F)ccc3F)cc2N1 | 7 nM | 17 nM | 
29 | O=C1CC(c2cccc(-n3ccnn3)c2)=Nc2ccc(-c3ccc(F)cc3)cc2N1 | 31 nM | 36 nM | 
30 | O=C1CC(c2cccc(-n3ccnc3)c2)=Nc2ccc(C(F)(F)F)cc2N1 | 43 nM |  | 
31 | O=C1CC(c2cccc(-n3ccnc3)c2)=Nc2ccc(Br)cc2N1 | 72 nM |  | 
